Measured values taken from patent EP4644389A1, “PRMT5-MTA INHIBITOR” (Suzhou Puhe Biopharma Co., Ltd., priority 2022, dated 2024).

Legend:
[1] = Liver microsomal stability, human; assay type: in vitro ADME; settings: human liver microsomes 0.5 mg/mL, compound 1 µM, NADPH 1 mM, 60 minutes
Method: Microsomal stability experiment of the compound. The details are as follows: A microsomal stability test was conducted on the compounds of the present invention. The test compounds were co-incubated with liver microsomes from different species, with or without the addition of NADPH. In the test system, the final concentration of the test compound was 1 µM, the final concentration of NADPH was 1 mM, and the final concentration of liver microsomes was 0.5 mg/mL.

MDR1 (P-gp) = assay: MDCK-MDR1 membrane permeability assay; assay type: in vitro ADME; settings: dog; MDCK-MDR1, 1 µM, pH 7.4, 2 hours
Method: (§1) Evaluation of membrane permeability of the molecules of the present invention to predict their permeability for the brain.
(§2) Specifically: 1. Pre-incubate MDCK-MDR1 cells at a density of 1.56×10^6 cells/mL, inoculate them in a 96-well plate to culture at 37°C for 7 days; 2. Remove the MDCKII-MDR1 plate from the incubator, wash twice with pre-warmed HBSS (10 mM HEPES, pH 7.4), and incubate at 37°C for 30 minutes; 3. Dilute the stock solution of the test compound with DMSO to obtain a 0.2 mM solution, then further dilute it with HBSS (10 mM HEPES, pH 7.4) to prepare a 1 µM working solution. For the blank control group, dilute with DMSO to obtain a 0.2 mM solution, then further dilute with HBSS (10 mM HEPES, pH 7.4) to obtain a 1 µM working solution. The final concentration of DMSO in the culture system is 0.5%; 4. Measure the transport rate of the drug from the apical side to the basolateral side. Add 125 µL of the 1 µM test compound solution into the Transwell insert (apical chamber) and immediately transfer 50 µL of the sample (D0 sample) from the apical chamber to a new 96-well plate. Fill the receptor plate wells (basolateral chamber) with 235 µL HBSS (10 mM HEPES, pH 7.4) and incubate at 37°C for 2 hours; 5. At the end of the incubation, transfer 50 µL of the sample from both the donor side and the acceptor side into the wells of a new 96-well plate, then add four volumes of cold acetonitrile containing the appropriate internal standard (IS). Before the LC-MS/MS analysis, take 100 µL of the supernatant and mix it with an appropriate volume of ultrapure water. Papp = (VA×⌊drug⌋acceptor)/(Area×Time×⌊drug⌋initial,donor) [formula] wherein VA is the volume of the acceptor well (unit: mL), area is the membrane surface area (for Transwell-96 well permeable support, it is 0.143 cm^2), and time is the total transport time (in seconds). Efflux Ratio = Papp (B−A)/Papp (A−B) [formula]

MDCK-MDR1 cells = assay: MDCK-MDR1 membrane permeability assay; assay type: in vitro ADME; settings: MDCK-MDR1, Efflux Ratio = Papp (B-A)/Papp (A-B)
Method: as §1, §2

MDR1 = assay: MDCK-MDR1 membrane permeability assay; assay type: in vitro ADME; settings: dog, pH 7.4; MDCK-MDR1, Efflux Ratio = Papp (B-A)/Papp (A-B)
Method: as §1, §2

HCT116-MTAPdel = assay: 2D anti-proliferation assay (CTG luminescence), MTAP-deficient HCT116 cells; assay type: cell-based
Method: (§3) HCT116 wild-type and MTAP-deficient cells were cultured in MCCOYS 5A medium containing 10% FBS and 1% penicillin-streptomycin and incubated in a 37°C, 5% CO2 incubator. A 40 µL cell suspension was added to each well of a 384-well microplate. Using Echo, 40 nL of the compound at different concentrations were added to each well, followed by incubation in a 37°C, 5% CO2 incubator for 7-10 days. 40 µL of CTG solution (Promega, Cat No. G7573) was added to each well and incubated away from light in a 37°C, 5% CO2 incubator for 30 minutes. Luminescence was measured using an Envision multimode plate reader (Perkin Elmer, Catalog No. Envision 2104). The luminescence signal was proportional to the ATP content in the system, and the ATP content directly reflected the number of viable cells in the system.

HCT116-MTAPwt = assay: 2D anti-proliferation assay (CTG luminescence), wild-type HCT116 cells; assay type: cell-based; settings: Homo sapiens, HCT-116, 7-10 days incubation
Method: By testing the activity of both of them, the inhibitory effect and selectivity of the molecules of the present invention for PRMT5 at the cellular level were shown.
as §3
ICso value calculation: [formula] • X: Log value of compound concentration • Y: Inhibition rate (%) Table 1: 2D Anti-proliferation Effects of Compounds on HTC116-MTAP del and Wild-type Colorectal Cancer HCT-116 Cell Lines.

[2] = Caco-2 membrane permeability assay; assay type: in vitro ADME; settings: human
Method: (§4) Evaluation of membrane permeability of the molecules of the present invention. Samples will be analyzed using LC-MS to estimate the apparent permeability coefficient (Papp) of the compound in Caco-2 monolayer cells, wherein the pH of the apical chamber is 6.5, and the pH of the basolateral chamber is 7.4. The P-gp efflux transporter, BCRP, and MRP2 inhibitors (50 µM quinidine, 30 µM benzbromarone, and 20 µM sulfasalazine) can block the active efflux transport of the compound. The data will be used for calculating apparent permeability (Papp). Papp = (VA×⌊drug⌋acceptor)/(Area×Time×⌊drug⌋initial,donor) [formula] wherein, VA is the volume of the receptor well (unit: mL), area is the membrane surface area (for Transwell-96 well permeable support, it is 0.143 cm^2), and time is the total transport time (unit: seconds). Efflux Ratio = Papp (B−A)/Papp (A−B) [formula]

Caco-2 monolayer cells = assay: Caco-2 membrane permeability assay; assay type: in vitro ADME; settings: Caco-2, Efflux Ratio = Papp (B-A)/Papp (A-B)
Method: as §4

[3] = Pharmacokinetic evaluation in mice (IV and oral); settings: female, CD1, mouse, in vivo
Method: CD1 female mice were used as test animals, and the compounds were administered orally or intravenously (oral dose of 10 mg/kg; intravenous dose of 2 mg/kg).
Experiment protocol: Three mice per group for oral administration, and three mice per group for intravenous administration. Oral: Plasma samples were collected before administration (0 h) and at 0.25, 0.5, 1, 2, 4, 8, and 24 hours post-administration; Intravenous: Plasma samples were collected before administration (0 h) and at 0.083, 0.25, 0.5, 1, 2, 4, 8, and 24 hours post-administration. The plasma drug concentrations in mice after oral and intravenous administration were determined using LC/MS/MS, and the collected data were analyzed using AB Sciex QTRAP 6500 software.

[4] = Caco-2, apical pH 6.5, basolateral pH 7.4

Work on Cc1c(CO)c(N)nc2cc(F)c(C(=O)N(C)[C@@H]3COc4cc(C(F)(F)F)ccc43)cc12 [Compound A9a] yielded a CLint scaled at 1 µM [1] of 8.9 mL/min/kg, a Papp A→B at 2 h, 1 µM (MDR1 (P-gp)) of 5.1 ×10⁻⁶ cm/s and a Papp B→A at 2 h, 1 µM (MDR1 (P-gp)) of 5.9 ×10⁻⁶ cm/s. For the same compound, the Efflux (MDCK-MDR1 cells) was 1.2, the efflux ratio at 2 h, 1 µM (MDR1) was 1.2 and the IC50 (HCT116-MTAPdel; Homo sapiens, HCT-116, HCT116 MTAP-deficient cells, 7-10 days incubation, CTG, read-out: HCT116-MTAPdel/IC50/nM) was 16 nM. For the same compound, the “HCT116 WT/MTAPdel Selectivity” value (HCT116-MTAPdel; ratio of IC50 HCT116 WT / MTAPdel) was 130, the IC50 (HCT116-MTAPwt) was 2470 nM and the efflux ratio ([2]; Caco-2, Efflux Ratio = Papp (B-A)/Papp (A-B)) was 1.6. The Papp A→B [2, 4] was 6.9 ×10⁻⁶ cm/s, the Papp B→A [2, 4] was 10.8 ×10⁻⁶ cm/s and the Efflux (Caco-2 monolayer cells) was less than 2. For the same compound, the bioavailability [3] was 81%, the AUC(0-t) ([3]; iv, 2 mg/kg) was 19500 ng·h/mL and the C0 ([3]; iv, 2 mg/kg) was 4010 ng/mL. The clearance ([3]; iv, 2 mg/kg) was 1.7 mL/min/kg, the half-life ([3]; iv, 2 mg/kg) was 3.3 h and the AUC(0-t) ([3]; po, 10 mg/kg) was 74200 ng·h/mL. It also gave a Cmax ([3]; po, 10 mg/kg) of 5340 ng/mL, a Tmax ([3]; po, 10 mg/kg) of 2 h and a half-life ([3]; po, 10 mg/kg) of 5.9 h.
